Data set [1] can be described thus: ANTS/DPX dye leakage assay and equi-activity partitioning analysis. The note with it: for K (mole fraction partitioning coefficient) / RB ([P]B/[L]) / [P]W (peptide concentration in the water phase): fit of Equation (4), [L] = (1−20) mM, [P] = (0.05−2) mM, HBS. As to the method:
All hydrated samples were equilibrated for 1 h at 40°C followed by 5 freeze-and-thaw cycles using liquid N2 and intermittent vortex-mixing. Large unilamellar vesicles (LUVs) were obtained by 31 extrusions with a handheld mini extruder (Avanti Polar Lipids, Alabaster, AL) using a 100 nm pore diameter polycarbonate filter. Vesicle size and polydispersity were determined via DLS using a Zetasizer NANO ZSP (Malvern Panalytical, Malvern, UK). ANTS/DPX-containing vesicles were separated from free ANTS/DPX by exclusion chromatography using a column filled with SephadexTM G-75 (Amersham Biosciences, Little Chalfont, UK) fine gel swollen in iso-osmotic HBS. Phospholipid concentrations for all samples were determined by phosphate analysis.
Dye leakage experiments were performed combining previously reported protocols ([20], [27]). In brief, the dependencies of ANTS/DPX leakage on lipid and peptide concentration were determined by first incubating lipid vesicles ([L] = 1, 4, 10, and 20 mM) with peptides [[P] = (0.025−2) mM] at 37°C for 1 h using a gently rocking shaker (Eppendorf Thermomixer C, Hamburg, Germany). Similar time protocols were applied previously ([27]) and are justified here based on separate time-resolved leakage experiments (Supplementary Figure 3) and Trp-fluorescence measurements (Figure 3), showing that a quasi steady state has been reached after 1 h. Before measurements, lipid/peptide solutions were diluted with HBS to a lipid concentration of 50 μM, and every measurement was repeated at least twice. Vesicle size was checked after each incubation period using DLS. Samples were excited at λ= 360 nm, and the intensity of the fluorescence emission peak at λ= 530 nm, Ip, was recorded with a slit width of 10 nm for both excitation and emission monochromators. Measurements were performed in quartz cuvettes in 2 ml of the iso-osmotic buffer on a Cary Eclipse Fluorescence Spectrophotometer (Varian/Agilent Technologies, Palo Alto, CA). The percentage of leakage, E%, was calculated according to the relation
(1) E%=Ip-Imin/Imax-Imin,
where Imin is the initial fluorescence without peptide, and Imax is the fluorescence corresponding to 100% leakage determined through the addition of a 1 vol% solution of Triton X-100. The initial, monotonic increase of E% values with increasing [P] was interpolated with a sigmoidal function. This enabled us to obtain peptide and lipid concentrations leading to a specific E% value, which can in turn be used to calculate the partitioning parameters (see section 2.3.1).
(4) [P]=RB[W]/K︸[P]W+RB[L]︸[P]B=RB([W]/K+[L]),

Data set [2] is described as follows: solubility of the peptide in buffer (stock preparation). The data set is classed as physicochemical. The note with it: PBS / HBS stock solutions; acetic acid up to 0.3% and DMSO up to 3% vol/vol added. As to the method: Peptide stock solutions of LF11-215 and LF11-324 were prepared in PBS solution for bacteria and HBS solution for lipid vesicles. […] AMP concentrations of the stock solutions were determined by comparing against the absorption band of the aromatic amino acids with the spectrophotometer NanoDrop ND-1000 (Thermo Fisher Scientific, Waltham, MA). Peptide stock solutions were stored in silanized glass tubes until use.

Where [3] appears, read: POPE/POPG LUVs, leakage 10%, 1 h at 37°C.
Setting [4] is: POPE/POPG LUVs, leakage 15%, 1 h at 37°C.
Where [5] appears, read: POPE/POPG/TOCL LUVs, leakage 10%, 1 h at 37°C.
Setting [6] is: POPE/POPG/TOCL LUVs, leakage 20%, 1 h at 37°C.
The mark [7] stands for this setting: POPE/POPG/TOCL LUVs, leakage 40%, 1 h at 37°C.

The source of these data is paper PMC8757871, “Bridging the Antimicrobial Activity of Two Lactoferricin Derivatives in E. coli and Lipid-Only Membranes” (Frontiers in Medical Technology, 2021).

Some results are limits rather than exact numbers.

For “H-FWRIRIRR-NH2 [LF11-215, H-FWRIRIRR-NH2]”, the “maximum amount of partitioned AMPs” value in data set [1] (PE-containing systems, [L] ≃20 mM) was below 80%. In data set [1] (POPE/POPG LUVs [L] = 50 µM, [P] = 0.5 µM, converging after 25 min), the “ANTS/DPX dye efflux, time-resolved” value is given as around 5%. Also, the “K (mole fraction partitioning coefficient)” value in data set [1] (setting [3]) is 1.37 ± 0.16 ×10^4; in data set [1] (setting [4]), 0.75 ± 0.15 ×10^4; in data set [1] (setting [5]), 1.7 ± 0.8 ×10^4; in data set [1] (setting [6]), 1.5 ± 0.3 ×10^4; in data set [1] (setting [7]), 1.5 ± 0.4 ×10^4. In addition, the “RB ([P]B/[L])” value is recorded as 9.8 ± 0.4 ×10^−3 in data set [1] (setting [3]); 10.7 ± 1.0 ×10^−3 in data set [1] (setting [4]); 5.6 ± 0.7 ×10^−3 in data set [1] (setting [5]); 7.2 ± 0.5 ×10^−3 in data set [1] (setting [6]); 9.6 ± 0.9 ×10^−3 in data set [1] (setting [7]). Besides, the “[P]W (peptide concentration in the water phase)” value in data set [1] (setting [3]) worked out at 0.040 ± 0.006 mM; in data set [1] (setting [4]), 0.08 ± 0.02 mM; in data set [1] (setting [5]), 0.018 ± 0.010 mM; in data set [1] (setting [6]), 0.026 ± 0.007 mM; in data set [1] (setting [7]), 0.036 ± 0.012 mM. For the same substance, the “total ANTS/DPX efflux” value in data set [1] (POPE/POPG vesicles, 1 h at 37°C, all [P] and [L] tested) was at most 40%.

On to “H-PFFWRIRIRR-NH2 [LF11-324, H-PFFWRIRIRR-NH2]”, for which the solubility in buffer entry in data set [2] is given as “weak solubility”.
